Results: article PMC3954981 (Bioorganic & medicinal chemistry, 2014)
Like-named read-outs stand apart in the source and are kept apart here. Blank lines part the entries; values can stand above or below the molecule they belong to.

Tests used:
PADs 1, 2, 3, and 4 = assay: Library screening, inhibition of the PADs described in words; assay type: biochemical, human; conditions: 10 μM, PADs 1–4
PAD1 [1] = target: T1, PAD1 (Homo sapiens, UniProt Q9ULC6); assay: Inactivation kinetics; assay type: biochemical; conditions: read-out: kinact/KI (apparent), PAD1
T1 sequence (Q9ULC6 1-663): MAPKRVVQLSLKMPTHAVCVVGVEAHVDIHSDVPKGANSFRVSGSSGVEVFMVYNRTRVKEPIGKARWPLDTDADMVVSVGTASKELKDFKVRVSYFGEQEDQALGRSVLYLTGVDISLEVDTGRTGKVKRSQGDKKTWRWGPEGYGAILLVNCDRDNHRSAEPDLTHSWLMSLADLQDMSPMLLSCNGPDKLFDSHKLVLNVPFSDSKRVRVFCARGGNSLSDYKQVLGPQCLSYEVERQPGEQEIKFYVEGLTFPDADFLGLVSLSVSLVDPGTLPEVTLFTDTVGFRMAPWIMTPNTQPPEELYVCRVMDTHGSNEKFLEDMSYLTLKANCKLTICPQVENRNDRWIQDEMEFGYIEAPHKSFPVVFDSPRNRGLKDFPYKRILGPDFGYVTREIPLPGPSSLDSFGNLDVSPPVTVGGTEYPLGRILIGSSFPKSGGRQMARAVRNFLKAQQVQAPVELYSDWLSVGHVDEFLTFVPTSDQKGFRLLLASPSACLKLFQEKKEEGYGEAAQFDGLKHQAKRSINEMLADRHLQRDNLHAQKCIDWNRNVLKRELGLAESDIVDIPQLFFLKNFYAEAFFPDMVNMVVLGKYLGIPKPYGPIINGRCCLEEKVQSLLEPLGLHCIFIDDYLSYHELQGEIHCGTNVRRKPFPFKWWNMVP

PAD4 [2] = target: T2, PAD4 (Homo sapiens, UniProt Q9UM07); assay: Inactivation kinetics; assay type: biochemical
PAD4 C645A = PAD4 C645A (Homo sapiens, UniProt Q9UM07, C645A); assay: MALDI-MS analysis of inhibitor-treated enzyme; assay type: binding; conditions: 1:10 enzyme:inhibitor, 1 h, PAD4 C645A 5 μM
PAD4 [3] = target: T2, PAD4; assay: Gel-based competitive ABPP with RFA; assay type: binding; conditions: RFA 10 μM, PAD4 2 μM, inhibitor 0–50 μM
PAD3 [4] = target: T3, PAD3 (Homo sapiens, UniProt Q9ULW8); assay: Inactivation kinetics; assay type: biochemical; conditions: read-out: kinact/KI (apparent), PAD3
T3 sequence (Q9ULW8 1-664): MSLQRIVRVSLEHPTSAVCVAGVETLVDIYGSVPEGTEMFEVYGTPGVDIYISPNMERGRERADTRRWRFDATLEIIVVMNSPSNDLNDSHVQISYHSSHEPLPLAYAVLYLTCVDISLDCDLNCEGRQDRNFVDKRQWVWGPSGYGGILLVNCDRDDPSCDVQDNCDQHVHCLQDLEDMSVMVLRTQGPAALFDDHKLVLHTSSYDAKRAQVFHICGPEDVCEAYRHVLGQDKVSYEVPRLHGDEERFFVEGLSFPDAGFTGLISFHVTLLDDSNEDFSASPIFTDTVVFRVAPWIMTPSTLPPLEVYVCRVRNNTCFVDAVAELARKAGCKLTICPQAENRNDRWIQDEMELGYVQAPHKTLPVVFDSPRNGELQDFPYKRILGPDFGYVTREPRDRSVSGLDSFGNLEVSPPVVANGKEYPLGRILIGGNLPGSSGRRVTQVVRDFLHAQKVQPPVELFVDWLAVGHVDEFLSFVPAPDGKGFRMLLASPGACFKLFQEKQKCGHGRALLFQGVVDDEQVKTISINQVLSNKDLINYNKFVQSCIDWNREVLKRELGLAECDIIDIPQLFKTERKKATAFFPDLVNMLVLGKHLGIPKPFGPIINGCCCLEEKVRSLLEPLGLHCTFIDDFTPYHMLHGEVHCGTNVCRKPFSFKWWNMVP

PAD4 [5] = target: T2, PAD4; assay: Irreversibility study; assay type: biochemical; conditions: for recovery of PAD4 enzymatic activity after dialysis: 100 μM compound, 1 h, dialysis overnight
PAD2 [6] = target: T4, PAD2 (Homo sapiens, UniProt Q9Y2J8); assay: MALDI-MS analysis of inhibitor-treated enzyme; assay type: binding; conditions: 1:10 enzyme:inhibitor, 1 h, PAD2 3 μM
PAD4 [7] = target: T2, PAD4; assay: Substrate; assay type: biochemical; conditions: inactivator 0.5 μM; BAEE 2 mM and 10 mM
WT-PAD4 = WT-PAD4 (Homo sapiens, UniProt Q9UM07); assay: MALDI-MS analysis of inhibitor-treated enzyme; assay type: binding; conditions: 1:10 enzyme:inhibitor, 1 h, WT-PAD4 3 μM
PAD2 [8] = target: T4, PAD2; assay: Gel-based competitive ABPP with RFA; assay type: binding; conditions: RFA 10 μM, PAD2 2 μM, inhibitor 0–50 μM
PAD2 [9] = target: T4, PAD2; assay: Inactivation kinetics; assay type: biochemical
U2OS cells = assay: XTT cell viability assay; conditions: 10 μM, 3 days
NIH 3T3 cells = assay: XTT cell viability assay; conditions: 10 μM, 3 days
PADs = conditions: second generation mechanism-based inactivator; cited from earlier work
PAD4 [10] = target: T2, PAD4; conditions: cited from earlier work
PAD2 [11] = target: T4, PAD2; assay: Irreversibility study; assay type: biochemical; conditions: 170-fold excess of 17, dialyzed 20 h
PAD3 [12] = target: T3, PAD3; assay: Irreversibility study; assay type: biochemical; conditions: 170-fold excess of 17, dialyzed 20 h
PAD1 [13] = target: T1, PAD1; assay: Irreversibility study; assay type: biochemical; conditions: 170-fold excess of 17, dialyzed 20 h
[14] = read-out: kinact/KI (apparent), PAD4
[15] = read-out: kinact/KI (apparent), PAD2

T4 sequence (Q9Y2J8 whole entry): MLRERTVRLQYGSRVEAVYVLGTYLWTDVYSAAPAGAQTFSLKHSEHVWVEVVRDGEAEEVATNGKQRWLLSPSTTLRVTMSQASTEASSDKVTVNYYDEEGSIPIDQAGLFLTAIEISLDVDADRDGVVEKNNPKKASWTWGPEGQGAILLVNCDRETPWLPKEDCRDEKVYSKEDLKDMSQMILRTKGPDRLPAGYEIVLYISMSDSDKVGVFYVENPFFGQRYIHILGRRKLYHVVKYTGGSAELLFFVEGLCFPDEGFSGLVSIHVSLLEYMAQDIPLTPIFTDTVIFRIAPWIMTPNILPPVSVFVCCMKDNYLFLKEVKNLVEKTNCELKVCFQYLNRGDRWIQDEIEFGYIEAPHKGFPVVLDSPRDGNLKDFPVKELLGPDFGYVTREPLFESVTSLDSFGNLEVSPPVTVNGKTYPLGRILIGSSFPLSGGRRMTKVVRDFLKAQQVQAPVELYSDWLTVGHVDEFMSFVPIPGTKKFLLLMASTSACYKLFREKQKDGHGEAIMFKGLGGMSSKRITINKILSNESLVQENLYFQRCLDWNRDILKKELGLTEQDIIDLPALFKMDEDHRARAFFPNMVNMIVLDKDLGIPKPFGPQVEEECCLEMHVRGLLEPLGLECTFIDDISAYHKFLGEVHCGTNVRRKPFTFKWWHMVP
T2 sequence (Q9UM07 whole entry): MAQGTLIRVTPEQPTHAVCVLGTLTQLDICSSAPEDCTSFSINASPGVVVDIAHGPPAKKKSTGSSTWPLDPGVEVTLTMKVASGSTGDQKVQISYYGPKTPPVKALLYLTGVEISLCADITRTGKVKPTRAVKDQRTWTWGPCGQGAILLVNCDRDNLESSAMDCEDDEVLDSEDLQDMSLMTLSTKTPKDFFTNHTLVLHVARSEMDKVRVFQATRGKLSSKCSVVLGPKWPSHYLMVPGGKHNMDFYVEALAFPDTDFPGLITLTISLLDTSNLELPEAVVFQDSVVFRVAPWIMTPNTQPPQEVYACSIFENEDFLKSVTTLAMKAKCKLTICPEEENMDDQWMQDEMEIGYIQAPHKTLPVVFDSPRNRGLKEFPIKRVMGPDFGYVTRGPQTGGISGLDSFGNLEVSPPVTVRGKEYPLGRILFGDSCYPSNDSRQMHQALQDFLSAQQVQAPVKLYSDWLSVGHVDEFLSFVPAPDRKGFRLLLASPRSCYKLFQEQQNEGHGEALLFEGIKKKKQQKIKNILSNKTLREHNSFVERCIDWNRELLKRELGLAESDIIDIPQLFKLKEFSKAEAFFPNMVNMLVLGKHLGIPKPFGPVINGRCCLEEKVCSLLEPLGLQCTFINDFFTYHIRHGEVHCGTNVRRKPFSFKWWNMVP
Chain of WT-PAD4 (Q9UM07 whole entry): as above
Chain of PAD4 C645A (Q9UM07 whole entry C645A): as the sequence (Q9UM07 whole entry) above, with C645A counted along it

SMILES: COC(=O)c1nc(C(=O)OC)c(N)c(-c2ccccc2Br)c1C [Compound 8]
inhibition of the PADs (in words) (PADs 1, 2, 3, and 4): little to no inhibition

kinact/KI (PAD1 [1]): 53.3 M⁻¹ s⁻¹
kinact/KI (PAD4 [2]; read-out: kinact/KI, PAD4): 95 M⁻¹ s⁻¹
mass shift of PAD4 C645A (Δ Da) (PAD4 C645A): 737 Da
labeling of PAD4 by RFA (PAD4 [3]): prevent labeling
kinact/KI (PAD3 [4]): 30 M⁻¹ s⁻¹
recovery of PAD4 enzymatic activity after dialysis (PAD4 [5]): little to no activity is recovered
mass shift of PAD2 (PAD2 [6]): 324 Da
substrate protection against inactivation of PAD4 (PAD4 [7]): little substrate protection was observed
mass shift of WT-PAD4 (Δ Da) (WT-PAD4): 692 Da
labeling of PAD2 by RFA (PAD2 [8]): prevent labeling
kinact (PAD2 [9]; read-out: kinact, PAD2): 0.00117 s⁻¹
kinact/KI (PAD2 [9]; read-out: kinact/KI, PAD2): 138 M⁻¹ s⁻¹
SMILES: NC1=CC(=O)c2ccc(-c3ccccn3)nc2C1=O [Compound 3]
inhibition of the PADs (in words) (PADs 1, 2, 3, and 4): strong inhibition

SMILES: COc1ccc2ncccc2c1[N+](=O)[O-] [Compound 29]
inhibition of the PADs (in words) (PADs 1, 2, 3, and 4): no inhibition

SMILES: COC(=O)c1nnc(C(=O)OC)c(-c2ccc3cc(OC)ccc3n2)n1 [Compound 26]
inhibition of the PADs (in words) (PADs 1, 2, 3, and 4): no inhibition

SMILES: COC(=O)c1nc(C(C)=O)c2[nH]c3ccccc3c2c1C [Compound 4]
inhibition of the PADs (in words) (PADs 1, 2, 3, and 4): little to no inhibition

kinact/KI (PAD1 [1]): 76.7 M⁻¹ s⁻¹
kinact/KI (PAD4 [2]; [14]): 93.3 M⁻¹ s⁻¹
kinact/KI (PAD3 [4]): 51.7 M⁻¹ s⁻¹
recovery of PAD4 enzymatic activity after dialysis (PAD4 [5]): little to no activity is recovered
kinact/KI (PAD2 [9]; [15]): 86.7 M⁻¹ s⁻¹
SMILES: NC1=CC(=O)c2cccnc2C1=O [Compound 14]
inhibition of the PADs (in words) (PADs 1, 2, 3, and 4): strong inhibition

SMILES: CCOC(=O)c1nc(C(=O)OCC)c(C(=O)OCC)c(-c2ccc(OC)c(OC)c2OCc2ccccc2)c1C [Compound 7]
inhibition of the PADs (in words) (PADs 1, 2, 3, and 4): little to no inhibition

SMILES: NC1=C(N)C(=O)c2ccccc2C1=O [Compound 19]
inhibition of the PADs (PADs 1, 2, 3, and 4): ~ 50%

SMILES: COC(=O)c1nc(C(=O)OC)c(NC(C)=O)c(-c2ccccc2Br)c1C [Compound 6]
inhibition of the PADs (in words) (PADs 1, 2, 3, and 4): little to no inhibition

SMILES: COC(=O)c1cc(-c2ccccc2)c(C(=O)OC)c(-c2ccc3ccccc3n2)n1 [Compound 24]
inhibition of the PADs (in words) (PADs 1, 2, 3, and 4): no inhibition

SMILES: COc1ccc2nc(C#N)ccc2c1 [Compound 30]
inhibition of the PADs (in words) (PADs 1, 2, 3, and 4): no inhibition

kinact/KI (PAD1 [1]): 60 M⁻¹ s⁻¹
kinact/KI (PAD4 [2]; [14]): 81.7 M⁻¹ s⁻¹
kinact/KI (PAD3 [4]): 25 M⁻¹ s⁻¹
recovery of PAD4 enzymatic activity after dialysis (PAD4 [5]): little to no activity is recovered
kinact/KI (PAD2 [9]; [15]): 63.3 M⁻¹ s⁻¹
SMILES: COC1=C(Br)C(=O)c2ncccc2C1=O [Compound 10]
inhibition of the PADs (in words) (PADs 1, 2, 3, and 4): strong inhibition
cells remaining viable, U2OS (U2OS cells): retain significant viability
cells remaining viable, NIH 3T3 (NIH 3T3 cells): retain significant viability

SMILES: COC(=O)c1nnc(C(=O)OC)c(-c2ccc3c([N+](=O)[O-])c(OC)ccc3n2)n1 [Compound 25]
inhibition of the PADs (in words) (PADs 1, 2, 3, and 4): no inhibition

SMILES: CC(=O)N[C@H](C(=O)N[C@@H](CC(=O)O)C(=O)N[C@@H](CCCN=C(N)CF)C(N)=O)[C@@H](C)O [Thr-Asp-F-amidine (TDFA), Thr-Asp-F-amidine]
kinact/KI (PADs): 26,000 M^−1min^−1

SMILES: O=C(O)c1cccc(-c2ccc3ccc(Br)c(OCc4ccccc4)c3n2)n1 [Compound 23]
inhibition of the PADs (in words) (PADs 1, 2, 3, and 4): no inhibition

SMILES: COC1=C(N)C(=O)c2nc(-c3nc(C(=O)O)c(C)c(-c4ccc(OC)c(OC)c4O)c3N)ccc2C1=O [Streptonigrin, reference compound]
mass shift of PAD4 C645A (Δ Da) (PAD4 C645A): 924 Da
labeling of PAD4 by RFA (PAD4 [3]): decreased the labeling
mass shift of PAD2 (PAD2 [6]): 469 Da
mass shift of WT-PAD4 (Δ Da) (WT-PAD4): 710 Da
labeling of PAD2 by RFA (PAD2 [8]): decreased the labeling
preferential inhibition of PAD4 versus PAD1 (PAD4 [10]): 119 fold
preferential inhibition of PAD4 versus PAD2 (PAD4 [10]): 37 fold
preferential inhibition of PAD4 versus PAD3 (PAD4 [10]): 126 fold

PAD2 activity regained after dialysis (PAD2 [11]): Little to no activity was regained
labeling of PAD4 by RFA (PAD4 [3]): prevent labeling
recovery of PAD4 enzymatic activity after dialysis (PAD4 [5]): little to no activity is recovered
PAD4 activity regained after dialysis (PAD4 [5]; 170-fold excess of 17, dialyzed 20 h): Little to no activity was regained
PAD3 activity regained after dialysis (PAD3 [12]): Little to no activity was regained
labeling of PAD2 by RFA (PAD2 [8]): prevent labeling
PAD1 activity regained after dialysis (PAD1 [13]): Little to no activity was regained
SMILES: NC1=CC(=O)c2ccc(-c3cccc(C(=O)O)n3)nc2C1=O [Compound 17]
inhibition of the PADs (in words) (PADs 1, 2, 3, and 4): strong inhibition
cells remaining viable, U2OS (U2OS cells): retain significant viability
cells remaining viable, NIH 3T3 (NIH 3T3 cells): retain significant viability

SMILES: NC1=CC(=O)c2ccc(-c3cc(C(=O)O)ccc3N)nc2C1=O [Compound 22]
inhibition of the PADs (in words) (PADs 1, 2, 3, and 4): loss in potency

SMILES: COC(=O)c1cccc(-c2ccc3ccc(Br)c(O)c3n2)n1 [Compound 5]
inhibition of the PADs (in words) (PADs 1, 2, 3, and 4): no inhibition
